Laboratory results reported in paper PMC8648660, “Multifunctional thiosemicarbazones targeting sigma receptors: in vitro and in vivo antitumor activities in pancreatic cancer models” (Cellular Oncology, 2021).

Key:
[1] = system: sigma-1 and sigma-2 receptor subtypes; design: method as in PMID 24106081; conditions: cited from earlier work
KP02 cells = system: KP02 cells; design: method as in PMID 29287249; conditions: cited from earlier work
AspC1 cells = system: AspC1 cells; design: method as in PMID 29287249; conditions: cited from earlier work
PANC02 cells = system: PANC02 cells; design: method as in PMID 29287249; conditions: cited from earlier work
PANC-1 cells = system: PANC-1 cells; design: method as in PMID 29287249; conditions: cited from earlier work
MiaPaCa2 cells = system: MiaPaCa2 cells; design: method as in PMID 29287249; conditions: cited from earlier work
BxPC3 cells = system: BxPC3 cells; design: method as in PMID 29287249; conditions: cited from earlier work
HPDE cells = system: HPDE cells; design: method as in PMID 29287249; conditions: read-out: Activity EC50, HPDE (normal cells); cited from earlier work
[2] = system: GRP78, ATF6, IRE1 and PERK; experiment: qRT-PCR of ER stress markers in pancreatic cancer cells; type: cell-based, human and murine; conditions: 50 µM, 2 h
Protocol: Total RNA was extracted using a phenol/chloroform method, after which 1 µg RNA was reverse-transcribed using an iScript Reverse Transcription Supermix kit according to the manufacturer’s instructions (Bio-Rad Laboratories). 25 ng cDNA was amplified using 10 µl of an IQ™ SYBR Green Supermix (Bio-Rad Laboratories). Primers were designed using qPrimer Depot software (http://primerdepot.nci.nih.gov/). qRT-PCR was carried out using an iQ^TM5 cycler (Bio-Rad Laboratories). The cycling conditions used were: 30 s at 95 °C, followed by 40 cycles of denaturation (15 s at 95 °C) and annealing/extension (30 s at 60 °C). The same cDNA preparations were used to quantify the expression of genes of interest and that of the housekeeping gene S14, which was used to normalize the gene expression levels. Relative quantitation of each sample was performed using Gene Expression Quantitation software (Bio-Rad Laboratories). The results were expressed in arbitrary units. For each gene, the expression level in untreated cells was arbitrarily set at “1”.

[3] = Systemic toxicity and hematochemical parameters of treated PANC-1 tumor-bearing mice; conditions: gemcitabine 20 mg/kg twice a week; mean ± SD
Protocol: 2 × 10^5 PANC-1 or Mia-PaCa2 cells were inoculated subcutaneously in the right flank of 6-week old C57BL/6 female nude mice (Charles River Laboratories Italia, Calco), housed (5 per cage) under a 12 h light/dark cycle, with food and drinking water provided ad libitum. Tumor growth was measured daily by caliper, according to the equation (LxW^2)/2, where L = tumor length and W = tumor width. […] Tumor volumes and animal weights were monitored daily. Animals were euthanized at day 18 or 36 after randomization with zolazepam (0.2 ml/kg) and xylazine (16 mg/kg). […] Red blood cell (RBC) count, hemoglobin (Hb), white blood cell (WBC) count, platelet (PLT) count, lactate dehydrogenase (LDH), aspartate aminotransferase (AST), alanine aminotransferase (ALT), alkaline phosphatase (AP), creatinine and creatine phosphokinase (CPK) were measured in blood samples collected immediately after euthanasia, using commercially available kits from Beckman Coulter Inc (Beckman Coulter, Miami, FL, USA).
Blood was collected immediately after euthanasia and analyzed for red blood cells (RBC) count, hemoglobin (Hb), white blood cells (WBC) count, platelets (PLT) count, lactate dehydrogenase (LDH), aspartate aminotransferase (AST), alanine aminotransferase (ALT), alkaline phosphatase (AP), creatinine, creatine phosphokinase (CPK). Data are presented as means ± SD.

PANC-1 xenografts = experiment: In vivo xenograft assay, PANC-1; design: species or system mice; conditions: for tumor growth: gemcitabine 20 mg/kg twice a week
Protocol: 2 × 10^5 PANC-1 or Mia-PaCa2 cells were inoculated subcutaneously in the right flank of 6-week old C57BL/6 female nude mice (Charles River Laboratories Italia, Calco), housed (5 per cage) under a 12 h light/dark cycle, with food and drinking water provided ad libitum. Tumor growth was measured daily by caliper, according to the equation (LxW^2)/2, where L = tumor length and W = tumor width. When tumors reached a volume of 100 mm^3, the mice (n = 8/group) were randomized in the following groups and treated daily for 15 days or 30 days intraperitoneally as reported: (1) Vehicle group (100 µl saline solution), (2) FA4^low group (750 nmol FA4 in 100 µl saline solution), (3) FA4^high group (1500 nmol FA4 in 100 µl saline solution) and (4) Gemcitabine group (20 mg/kg gemcitabine, twice a week). Tumor volumes and animal weights were monitored daily. Animals were euthanized at day 18 or 36 after randomization with zolazepam (0.2 ml/kg) and xylazine (16 mg/kg). Next, tumors were excised and paraffin-embedded. Sections were immuno-stained for cleaved caspase 3 (Cell Signalling Technology, Danvers, MA, USA) or with an anti-malondialdehyde antibody (Abcam), followed by a peroxidase-conjugated secondary antibody (Dako, Glostrup, Denmark). The sections were examined under a Leica DC100 microscope (Leica, Wetzlar, Germany). Quantification of the immunohistochemical analyses was performed using ImageJ software (https://imagej.nih.gov/). The staining intensities were expressed as arbitrary units and considered 1 in the vehicle group.

MiaPaCa2 xenografts = experiment: In vivo xenograft assay, MiaPaCa2; design: species or system mice; conditions: gemcitabine 20 mg/kg twice a week, 15 days
Protocol: 2 × 10^5 PANC-1 or Mia-PaCa2 cells were inoculated subcutaneously in the right flank of 6-week old C57BL/6 female nude mice (Charles River Laboratories Italia, Calco), housed (5 per cage) under a 12 h light/dark cycle, with food and drinking water provided ad libitum. Tumor growth was measured daily by caliper, according to the equation (LxW^2)/2, where L = tumor length and W = tumor width. When tumors reached a volume of 100 mm^3, the mice (n = 8/group) were randomized in the following groups and treated daily for 15 days or 30 days intraperitoneally as reported: (1) Vehicle group (100 µl saline solution), (2) FA4^low group (750 nmol FA4 in 100 µl saline solution), (3) FA4^high group (1500 nmol FA4 in 100 µl saline solution) and (4) Gemcitabine group (20 mg/kg gemcitabine, twice a week). Tumor volumes and animal weights were monitored daily. Animals were euthanized at day 18 or 36 after randomization with zolazepam (0.2 ml/kg) and xylazine (16 mg/kg). Next, tumors were excised and paraffin-embedded. […] Quantification of the immunohistochemical analyses was performed using ImageJ software (https://imagej.nih.gov/). The staining intensities were expressed as arbitrary units and considered 1 in the vehicle group.

| SMILES | EC50 (KP02 cells) [µM] | EC50 (AspC1 cells) [µM] | EC50 (PANC02 cells) [µM] | EC50 (PANC-1 cells) [µM] | EC50 (MiaPaCa2 cells) [µM] | EC50 (BxPC3 cells) [µM] | EC50 (HPDE cells) [µM] | mRNA expression of ER stress markers GRP78, ATF6, IRE1, PERK [2] | also measured |
| --- | --- | --- | --- | --- | --- | --- | --- | --- | --- |
| Fc1ccc(-n2cc(CCCCN3CCC4(CC3)OCc3ccccc34)c3ccccc32)cc1 [siramesine] |  |  |  |  |  |  |  |  | binding to sigma-1 versus sigma-2 receptor subtypes [1]: binds equally well to the sigma-1 and sigma-2 receptor subtypes |
| CN(C)C(=S)N/N=C1\C(=O)Nc2ccccc21 [ACthio-1, (Z)-N,N-dimethyl-2-(2-oxoindolin-3-ylidene)hydrazinecarbothioamide] | 2.83 | 2.17 | 1.21 | > 100 | 18.3 | 2.52 | 10.5 | none of the markers was increased in the other cells |  |
| COc1cc2c(cc1OC)CN(CCCCN1C(=O)/C(=N\NC(=S)N(C)C)c3ccccc31)CC2 [MLP44, (Z)-2-(1-(4-(6,7-dimethoxy-3,4-dihydroisoquinolin-2(1H)-yl)butyl)-2-oxoindolin-3-ylidene)-N,N-dimethylhydrazinecarbothioamide] | 6.92 | 2.01 | 1.33 | 14.6 | 14.6 | 2.34 | 9.5 | none of the markers was increased in the other cells |  |
| Nc1ccn([C@@H]2O[C@H](CO)[C@@H](O)C2(F)F)c(=O)n1 [gemcitabine] |  |  |  |  |  |  |  |  | ALT [3]: 36±12 U/l; AP [3]: 134±43 U/l; AST [3]: 142±18 U/l; CPK [3]: 309±32 U/l; Hb [3]: 11.03 ± 1.94 g/dL; LDH [3]: 6704±832 U/l; PLT [3]: 931±165 x 10^3/µl; RBC [3]: 11.28±0.98 x 10^6/µl; WBC [3]: 12.18±2.39 x 10^3/µl; tumor growth (PANC-1 xenografts; 15 days): ineffective against this tumor cell line; tumor growth (PANC-1 xenografts; 30 days): not able to significantly reduce tumor growth; intratumor apoptosis (cleaved caspase 3) and lipid peroxidation (PANC-1 xenografts; gemcitabine, 30 days): low or undetectable; tumor growth (MiaPaCa2 xenografts): MiaPaCa2 tumors were more sensitive to gemcitabine |
| CN(C)C(=S)N/N=C1\C(=O)N(CCCCN2CCN(C3CCCCC3)CC2)c2ccccc21 [PS3, (Z)-2-[1-[4-(4-cyclohexylpiperazin-1-yl)butyl]-2-oxoindolin-3-ylidene]-N,N-dimethylhydrazinecarbothioamide] | 7.32 | 3.86 | 1.17 | 8.73 | 10.1 | 6.15 | 5.35 | none of the markers was increased in the other cells |  |
